Experimental findings from patent publication US8148388B2, “2,4 (4,6) pyrimidine derivatives” (Janssen Pharmaceutica, N.V., priority 2004, dated 2012) are described below.

Common to all, as to type: biochemical
In one assay the target is Fes (h) (Homo sapiens, UniProt P07332). The assay is described as follows: Fes human kinase assay (glass-fiber filter). To be noted: test concentration of 10^−6M; for inhibition at 1 µM: read-out: C4 score (inhibition of Fes human). The method in brief:
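Human Fes (5–10 mU) was incubated with 0.1 mg/ml poly(Glu,Tyr) 4:1 in 8 mM MOPS pH 7.0, 0.2 mM EDTA, 10 mM Mg acetate and [γ-33P]ATP for 40 min at room temperature. The reaction was stopped with phosphoric acid, and substrate phosphorylation was quantified by filter binding and scintillation counting.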

The target of a further assay is CSK (h) (Homo sapiens, UniProt P41240). The experiment in a line: CSK human kinase assay (glass-fiber filter). To be noted: test concentration of 10^−6M; for inhibition at 1 µM: read-out: C2 score (inhibition of CSK human). The method in brief: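 Radiometric filter-binding assay: human CSK (5-10 mU) with 0.1 mg/ml poly(Glu, Tyr) 4:1 and [γ-33P]-ATP (concentration as required) in 50 mM Tris pH 7.5, 10 mM MnCl2, 10 mM MgAcetate. Incubated 40 minutes at room temperature, stopped with phosphoric acid; substrate-bound 33P counted.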
Sequence of CSK (h) (P41240 whole entry): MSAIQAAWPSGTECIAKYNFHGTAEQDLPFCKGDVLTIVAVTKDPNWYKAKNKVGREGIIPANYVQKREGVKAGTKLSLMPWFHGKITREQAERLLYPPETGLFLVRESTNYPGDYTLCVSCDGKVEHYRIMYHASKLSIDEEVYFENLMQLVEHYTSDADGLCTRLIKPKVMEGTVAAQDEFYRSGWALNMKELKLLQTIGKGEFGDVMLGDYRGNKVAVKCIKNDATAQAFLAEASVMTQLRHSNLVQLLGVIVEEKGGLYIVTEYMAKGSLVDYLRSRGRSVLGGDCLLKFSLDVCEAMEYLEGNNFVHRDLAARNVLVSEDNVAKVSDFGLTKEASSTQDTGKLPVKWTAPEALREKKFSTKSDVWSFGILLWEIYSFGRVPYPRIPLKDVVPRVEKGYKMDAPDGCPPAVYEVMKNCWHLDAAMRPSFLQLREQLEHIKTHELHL

The next assay concerns the target Fms (h) (Homo sapiens, UniProt P07333). The assay is described as follows: Fms human kinase assay (glass-fiber filter). The conditions noted are these: test concentration of 10^−6M; for inhibition at 1 µM: read-out: C7 score (inhibition of Fms human). The method in brief:
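Radiometric filter-binding assay: Fms (5-10 mU) with 250 μM peptide substrate and [γ-33P]ATP in 8 mM MOPS pH 7.0, 10 mM Mg acetate, 40 min at room temperature. Reaction stopped with phosphoric acid; substrate-bound 33P counted on P30 filtermat.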

A further assay addresses cSRC (h) (Homo sapiens, UniProt P12931). The experiment in a line: cSRC human kinase assay (glass-fiber filter). To be noted: test concentration of 10^−6M; for inhibition at 1 µM: read-out: C3 score (inhibition of cSRC human). The method in brief: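 Radiometric assay: kinase and substrate are incubated with [33P]ATP, with the reaction started by MgATP mix. The reaction is spotted on P30 filtermat, washed in 75 mM phosphoric acid and methanol, and the bound 33P is measured by scintillation counting.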

For another assay, the target named is EGFR (h) (Homo sapiens, UniProt P00533). The assay is described as follows: EGFR human kinase assay (glass-fiber filter). To be noted: test concentration of 10^−6M; for inhibition at 1 µM: read-out: C4 score (inhibition of EGFR human). The method in brief:
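Human EGFR (5-10 mU) phosphorylated 0.1 mg/ml poly(Glu, Tyr) 4:1 in 8 mM MOPS pH 7.0, 0.2 mM EDTA, 10 mM MnCl2, 10 mM MgAcetate with [γ-33P]ATP at unspecified concentration. Incubation lasted 40 minutes at room temperature, was stopped with phosphoric acid, and filter-bound 33P was counted by scintillation.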

A further assay addresses Abl (h) (Homo sapiens, UniProt P00519). The experiment in a line: Abl human kinase assay (glass-fiber filter). To be noted: test concentration of 10^−6M; for inhibition at 1 µM: read-out: C1 score (inhibition of Abl human).
The target of the next assay is Lck (h) (Homo sapiens, UniProt P06239). The assay is described as follows: Lck human kinase assay (glass-fiber filter). The conditions noted are these: test concentration of 10^−6M; for inhibition at 1 µM: read-out: C9 score (inhibition of Lck human). The method in brief:
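Kinase activity measured as transfer of (^33P) from radiolabeled MgATP to substrate, captured on P30 glass-fiber filtermat, washed in 75 mM phosphoric acid and methanol, then scintillation counted.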

For orientation: inhibition means the drop in the measured response relative to a control, in per cent.

Sequence of Fes (h) (P07332 whole entry): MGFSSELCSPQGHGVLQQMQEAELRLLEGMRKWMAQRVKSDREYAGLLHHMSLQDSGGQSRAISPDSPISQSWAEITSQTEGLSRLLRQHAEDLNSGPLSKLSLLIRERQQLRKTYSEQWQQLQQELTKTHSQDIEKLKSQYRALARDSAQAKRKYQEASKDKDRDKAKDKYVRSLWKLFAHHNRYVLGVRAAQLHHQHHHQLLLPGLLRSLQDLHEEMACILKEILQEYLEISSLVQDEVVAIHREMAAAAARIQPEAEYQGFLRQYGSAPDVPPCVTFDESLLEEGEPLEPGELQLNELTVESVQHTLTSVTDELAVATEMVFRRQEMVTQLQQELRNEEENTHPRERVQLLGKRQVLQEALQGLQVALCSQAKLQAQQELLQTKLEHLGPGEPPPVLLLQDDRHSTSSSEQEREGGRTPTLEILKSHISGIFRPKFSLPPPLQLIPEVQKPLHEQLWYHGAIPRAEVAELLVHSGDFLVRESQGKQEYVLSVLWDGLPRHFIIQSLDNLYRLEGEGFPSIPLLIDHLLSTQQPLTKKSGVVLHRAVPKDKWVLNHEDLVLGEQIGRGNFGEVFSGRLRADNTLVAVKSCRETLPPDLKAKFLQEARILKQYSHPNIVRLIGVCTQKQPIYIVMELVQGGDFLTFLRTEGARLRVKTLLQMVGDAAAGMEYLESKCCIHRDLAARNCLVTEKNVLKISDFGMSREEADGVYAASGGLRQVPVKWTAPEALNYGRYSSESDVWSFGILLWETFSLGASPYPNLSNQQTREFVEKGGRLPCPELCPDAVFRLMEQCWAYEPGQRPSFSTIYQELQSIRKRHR
Sequence of Abl (h) (P00519 whole entry): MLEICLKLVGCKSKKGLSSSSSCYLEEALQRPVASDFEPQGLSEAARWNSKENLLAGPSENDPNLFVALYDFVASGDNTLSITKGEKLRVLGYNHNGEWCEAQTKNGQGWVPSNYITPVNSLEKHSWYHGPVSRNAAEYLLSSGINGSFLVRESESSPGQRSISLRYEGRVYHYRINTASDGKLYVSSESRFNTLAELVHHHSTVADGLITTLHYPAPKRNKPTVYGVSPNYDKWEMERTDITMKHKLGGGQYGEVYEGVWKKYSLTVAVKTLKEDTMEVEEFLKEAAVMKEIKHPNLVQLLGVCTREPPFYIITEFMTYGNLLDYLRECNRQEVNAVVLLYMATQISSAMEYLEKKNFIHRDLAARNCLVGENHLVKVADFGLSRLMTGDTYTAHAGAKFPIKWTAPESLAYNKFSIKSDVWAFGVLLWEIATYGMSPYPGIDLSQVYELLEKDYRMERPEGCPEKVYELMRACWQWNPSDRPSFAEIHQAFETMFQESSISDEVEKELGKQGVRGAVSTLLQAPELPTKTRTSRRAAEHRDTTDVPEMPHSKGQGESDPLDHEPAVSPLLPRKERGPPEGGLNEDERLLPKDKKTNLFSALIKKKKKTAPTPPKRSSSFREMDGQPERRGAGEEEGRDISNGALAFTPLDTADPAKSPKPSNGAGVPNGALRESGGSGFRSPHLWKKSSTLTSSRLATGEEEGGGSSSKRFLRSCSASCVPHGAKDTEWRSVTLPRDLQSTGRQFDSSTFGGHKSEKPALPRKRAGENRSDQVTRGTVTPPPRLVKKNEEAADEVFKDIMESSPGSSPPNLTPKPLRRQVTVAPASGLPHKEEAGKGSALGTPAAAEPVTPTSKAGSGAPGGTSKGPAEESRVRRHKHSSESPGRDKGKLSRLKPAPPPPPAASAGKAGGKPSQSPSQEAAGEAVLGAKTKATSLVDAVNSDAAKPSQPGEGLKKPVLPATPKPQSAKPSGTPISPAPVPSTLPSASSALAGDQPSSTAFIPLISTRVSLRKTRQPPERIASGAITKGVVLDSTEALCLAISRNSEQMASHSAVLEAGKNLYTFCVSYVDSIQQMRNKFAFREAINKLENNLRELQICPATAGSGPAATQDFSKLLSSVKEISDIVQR
Sequence of Lck (h) (P06239 whole entry): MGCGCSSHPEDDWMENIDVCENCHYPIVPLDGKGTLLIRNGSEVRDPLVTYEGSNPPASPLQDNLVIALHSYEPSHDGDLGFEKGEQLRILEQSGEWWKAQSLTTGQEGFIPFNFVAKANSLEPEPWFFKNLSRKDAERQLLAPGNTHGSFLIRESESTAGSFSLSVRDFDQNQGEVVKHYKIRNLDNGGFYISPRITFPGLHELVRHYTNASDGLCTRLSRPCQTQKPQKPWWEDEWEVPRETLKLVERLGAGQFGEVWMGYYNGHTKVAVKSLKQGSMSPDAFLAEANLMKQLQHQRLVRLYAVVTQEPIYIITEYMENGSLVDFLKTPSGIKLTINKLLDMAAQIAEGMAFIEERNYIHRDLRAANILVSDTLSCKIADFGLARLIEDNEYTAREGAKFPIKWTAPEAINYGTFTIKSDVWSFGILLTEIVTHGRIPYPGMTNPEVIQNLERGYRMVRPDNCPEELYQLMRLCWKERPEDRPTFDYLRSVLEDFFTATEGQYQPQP
Sequence of Fms (h) (P07333 20-972): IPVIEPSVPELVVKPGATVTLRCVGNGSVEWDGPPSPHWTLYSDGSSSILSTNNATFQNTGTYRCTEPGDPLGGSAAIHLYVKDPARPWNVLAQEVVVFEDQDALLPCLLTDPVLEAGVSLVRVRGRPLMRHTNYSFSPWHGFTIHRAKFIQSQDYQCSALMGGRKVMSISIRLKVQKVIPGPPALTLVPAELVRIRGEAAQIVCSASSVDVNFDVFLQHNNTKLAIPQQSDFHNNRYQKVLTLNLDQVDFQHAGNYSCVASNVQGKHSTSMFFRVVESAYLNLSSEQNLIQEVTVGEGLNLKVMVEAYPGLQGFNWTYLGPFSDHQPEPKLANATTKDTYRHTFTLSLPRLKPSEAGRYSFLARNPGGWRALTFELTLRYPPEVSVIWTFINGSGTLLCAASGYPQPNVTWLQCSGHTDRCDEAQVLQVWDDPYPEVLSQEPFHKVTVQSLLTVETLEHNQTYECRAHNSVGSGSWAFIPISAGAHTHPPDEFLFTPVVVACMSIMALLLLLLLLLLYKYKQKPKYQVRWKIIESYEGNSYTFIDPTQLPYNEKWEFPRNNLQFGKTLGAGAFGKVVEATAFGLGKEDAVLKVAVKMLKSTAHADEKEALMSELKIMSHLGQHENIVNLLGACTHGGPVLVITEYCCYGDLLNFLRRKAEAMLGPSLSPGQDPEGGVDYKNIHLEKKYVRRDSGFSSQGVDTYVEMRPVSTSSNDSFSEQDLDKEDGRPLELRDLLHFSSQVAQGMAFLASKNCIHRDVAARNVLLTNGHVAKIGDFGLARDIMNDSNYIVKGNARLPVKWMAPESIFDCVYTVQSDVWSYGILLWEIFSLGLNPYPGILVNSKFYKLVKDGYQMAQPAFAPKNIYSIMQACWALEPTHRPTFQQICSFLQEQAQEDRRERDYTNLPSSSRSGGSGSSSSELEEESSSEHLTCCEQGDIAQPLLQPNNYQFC

For the compound `COc1ccc2cc1OCCCCCCCOc1ccc(Br)cc1Nc1cc(ncn1)N2` [Compound 37, 1H,7H-2,6: 12,8-dimetheno-14H-13,21,1,3,5,7-benzodioxatetraazacyclotricosine, 24-bromo-15,16,17,18,19,20-hexahydro-11-methoxy-], on Fes (h), the “C4 score (inhibition of Fes human)” value is recorded as 1 (Score 1=10-30% inhibition). In addition, the “C2 score (inhibition of CSK human)” value on CSK (h) is 1 (Score 1=10-30% inhibition). Besides, the “C7 score (inhibition of Fms human)” value on Fms (h) was 1 (Score 1=10-30% inhibition). For the same compound, the “C3 score (inhibition of cSRC human)” value at cSRC (h) is 1 (Score 1=10-30% inhibition). For the same compound, the “C4 score (inhibition of EGFR human)” value on EGFR (h) is listed as 3 (Score 3=60-80% inhibition). Further, the “C1 score (inhibition of Abl human)” value at Abl (h) is listed as 2 (Score 2=30-60% inhibition). In addition, the “C9 score (inhibition of Lck human)” value at Lck (h) is 2 (Score 2=30-60% inhibition).

Take `COc1ccc2cc1OCCNC(=O)CNC(=O)Cc1ccc(Cl)cc1Nc1cc(ncn1)N2` [Compound 103, 1H,7H-6,2:12,8-dimetheno-13,1,3,5,7,16,19-benzoxahexaazacyclotricosine-17,20(14H)-dione, 24-chloro-15,16,18,19,21-pentahydro-11-methoxy-]: the inhibition at 1 µM is 60 to 80% at Fes (h); 30 to 60% at CSK (h); > 80% on cSRC (h); > 80% at EGFR (h); > 80% on Abl (h); > 80% on Lck (h).

In the case of `COc1ccc2cc1OCCCNC(=O)C(C)(C)NC(=O)Cc1ccc(Cl)cc1Nc1cc(ncn1)N2` [Compound 105, 6,2:8,12-dimetheno-7H-13,1,3,5,7,17,20-benzoxahexaazacyclotetracosine-18,21-dione, 25-chloro-1,14,15,16,17,19,20,22-octahydro-11-methoxy-19,19-dimethyl-], the inhibition at 1 µM on Fes (h) is 60 to 80%; on CSK (h) it was 30 to 60%; at Fms (h), 10 to 30%; on cSRC (h), > 80%; at EGFR (h) it was > 80%; on Abl (h), > 80%. For the same compound, the inhibition at 1 µM on Lck (h) was > 80%.

Consider `N#Cc1cnc2nc1Nc1cccc(c1)OCCCNC(=O)COc1cccc(c1)N2` [Compound 28, 14,21-dioxa-2,4,8,18,28-pentaazatetracyclo[20.3.1.1~3,7~.1~9,13~]octacosa-1(26),3,5,7(28),9,11,13(27),22,24-nonaene-6-carbonitrile, 19-oxo-], for which the inhibition at 1 µM lay in the range of 10 to 30% on Fes (h); 10 to 30% on CSK (h); 30 to 60% at Fms (h); 30 to 60% at cSRC (h); 10 to 30% at Abl (h); 30 to 60% on Lck (h).

With “12,8-metheno-6,2-nitrilo-7H-13,1,5,7,16,19-benzoxapentaazacyclodocosine-3-carbonitrile, 23-chloro-1,14,15,16,17,18,19,20-octahydro-11-methoxy-19-methyl-17-oxo- [Compound 32]”, the “C4 score (inhibition of Fes human)” value on Fes (h) is 4 (Score 4=>80% inhibition). Moreover, the “C2 score (inhibition of CSK human)” value at CSK (h) is 1 (Score 1=10-30% inhibition). In addition, the “C7 score (inhibition of Fms human)” value at Fms (h) was 1 (Score 1=10-30% inhibition). Further, at cSRC (h), the “C3 score (inhibition of cSRC human)” value is given as 4 (Score 4=>80% inhibition). For the same compound, the “C4 score (inhibition of EGFR human)” value at EGFR (h) is 4 (Score 4=>80% inhibition). The “C1 score (inhibition of Abl human)” value on Abl (h) is recorded as 3 (Score 3=60-80% inhibition). Further, the “C9 score (inhibition of Lck human)” value at Lck (h) is 4 (Score 4=>80% inhibition).

`N#Cc1cnc2nc1Nc1cccc(c1)OCC(=O)NCCCCOc1cccc(c1)N2` [Compound 26, 14,22-dioxa-2,4,8,17,29-pentaazatetracyclo[21.3.1.1~3,7~.1~9,13~]nonacosa-1(27),3,5,7(29),9,11,13(28),23,25-nonaene-6-carbonitrile, 16-oxo-]: the inhibition at 1 µM at Fes (h) lay within 30 to 60%; on CSK (h) it was 10 to 30%; on Fms (h) it was 30 to 60%; on cSRC (h), 10 to 30%; at EGFR (h), 10 to 30%; at Abl (h), 10 to 30%. Further, on Lck (h), the inhibition at 1 µM fell in the range of 10 to 30%.

`COc1ccc2c(c1)OCCCCCCOc1ccc(Cl)cc1Nc1cc(ncn1)N2` [Compound 34, 11H-6,10-metheno-5H-dibenzo[b,k][1,13,4,6,8,10]dioxatetraazacyclononadecine, 13-chloro-17,18,19,20,21,22-hexahydro-2-methoxy-]: the inhibition at 1 µM was 10 to 30% at Fes (h); 10 to 30% at CSK (h); 10 to 30% at Fms (h); 10 to 30% on cSRC (h); 30 to 60% on EGFR (h); 10 to 30% on Lck (h).

In the case of `COc1ccc2cc1OCCCCCCOc1ccc(Br)cc1Nc1cc(ncn1)N2` [Compound 36, 1H,7H-2,6: 12,8-dimetheno-13,20,1,3,5,7-benzodioxatetraazacyclodocosine, 23-bromo-14,15,16,17,18,19-hexahydro-11-methoxy-], the “C4 score (inhibition of Fes human)” value on Fes (h) is reported as 1 (Score 1=10-30% inhibition). Besides, the “C2 score (inhibition of CSK human)” value at CSK (h) was 1 (Score 1=10-30% inhibition). The “C7 score (inhibition of Fms human)” value on Fms (h) is 1 (Score 1=10-30% inhibition). Further, the “C3 score (inhibition of cSRC human)” value on cSRC (h) is 1 (Score 1=10-30% inhibition). Besides, at EGFR (h), the “C4 score (inhibition of EGFR human)” value is listed as 4 (Score 4=>80% inhibition). The “C1 score (inhibition of Abl human)” value at Abl (h) is 2 (Score 2=30-60% inhibition). On Lck (h), the “C9 score (inhibition of Lck human)” value is listed as 2 (Score 2=30-60% inhibition).

On to `CC1(C)NC(=O)Cc2ccc(Cl)cc2Nc2cc(ncn2)Nc2ccc(OCCCN3CCOCC3)c(c2)OCCNC1=O` [Compound 106, 1H,7H-6,2:8,12-dimetheno-13,1,3,5,7,16,19-benzoxahexaazacyclotricosine-17,20(14H)-dione, 24-chloro-15,16,18,19,21-pentahydro-18,18-dimethyl-11-[3-(4-morpholinyl)propoxy]-], for which the inhibition at 1 µM at Fes (h) was > 80%; at CSK (h) it was 60 to 80%; on Fms (h) it was 10 to 30%; on cSRC (h), > 80%; on EGFR (h) it was > 80%; on Abl (h), > 80%. Further, on Lck (h), the inhibition at 1 µM was > 80%.

With `N#Cc1cnc2nc1Nc1cccc(c1)OCC(=O)NCCCOc1cccc(c1)N2` [Compound 25, 14,21-dioxa-2,4,8,17,28-pentaazatetracyclo[20.3.1.1~3,7~.1~9,13~]octacosa-1(26),3,5,7(28),9,11,13(27),22,24-nonaene-6-carbonitrile, 16-oxo-], the inhibition at 1 µM was in the range of 60 to 80% at Fes (h); 30 to 60% at CSK (h); 30 to 60% on Fms (h); 10 to 30% on cSRC (h); 10 to 30% at EGFR (h); 10 to 30% on Abl (h). Further, the inhibition at 1 µM on Lck (h) is 30 to 60%.

Take “1H,7H-2,6: 12,8-dimetheno-14H-13,19,1,3,5,7-benzodioxatetraazacycloheneicosine, 22-bromo-15,16,17,18-tetrahydro-11-methoxy- [Compound 35]”: on Fes (h), the “C4 score (inhibition of Fes human)” value is 1 (Score 1=10-30% inhibition). In addition, the “C2 score (inhibition of CSK human)” value at CSK (h) is listed as 1 (Score 1=10-30% inhibition). In addition, the “C7 score (inhibition of Fms human)” value on Fms (h) is listed as 2 (Score 2=30-60% inhibition). The “C3 score (inhibition of cSRC human)” value on cSRC (h) is 1 (Score 1=10-30% inhibition). Besides, the “C4 score (inhibition of EGFR human)” value on EGFR (h) is 2 (Score 2=30-60% inhibition). Moreover, the “C1 score (inhibition of Abl human)” value at Abl (h) is 4 (Score 4=>80% inhibition). Moreover, the “C9 score (inhibition of Lck human)” value on Lck (h) is on record as 2 (Score 2=30-60% inhibition).
